According to US10785978B2, “Control and repellency of biting flies, house flies, ticks, ants, fleas, biting midges, cockroaches, spiders and stink bugs” (priority 2012, dated 2020):

What was measured:
Assay type in all cases: in vivo
[1] = tested on: sand flies P. papatasi; assay: Sand fly bite test on treated human skin with K&D module; conditions: for percent biting, Treatment level 5%: 5% compound in isopropyl alcohol on human skin; for sand flies repelled: at 5%
Procedure: Control against sand flies was determined by the following protocol as generally described in J. Med. Entomol. 43 (6), 1248-1252 (2006). Volunteers wearing short pants were seated. Using a skin-marking template and a washable-ink marker, skin areas represented by 3- by 4-cm floor opening of six cells of a K&D module were outlined on the outer, top and inner thigh position of each leg of the volunteers. The six treated cell rectangles each represented a random block, and each volunteer had three blocks on each of two thighs. All treatments against the sand flies P. papatasi, were pipetted onto a 4- by 5-cm rectangular area (so the area of skin covered by a treatment exceeded the template marks by 0.5 cm in every direction) of the subjects' skin with 55 ul of isopropyl alcohol/treatment containing 10% or 5% compound/ul isopropyl alcohol. Treating a slightly larger area ensured that the areas beneath each K&D module contained only treated skin. Skin treated with isopropyl alcohol alone served as control. In all tests adjacent cells of the K&D module were supplied with ten sand flies. The sand fly charged K&D module was positioned over the treated skin areas and the trap doors of the K&D module above the areas were opened. After a five minute skin exposure the trap doors were closed. The number of sand fly bites was recorded for each cell. The percent biting is the percent compared to the biting for the control which was taken as 100%.

[2] = tested on: stable flies; assay: Stable fly probing on treated warmed blood-filled membranes; conditions: for Probes at 7% test compound: 7% in isopropyl alcohol on membrane; for Probes at 7% test compound / Probes at 15% test compound: twenty minutes, percent of control probes taken as 100%; for Probes at 15% test compound: 15% in isopropyl alcohol on membrane; for repellency compared with DEET: at the same concentrations (7% and 15%)
Procedure: Five replicates of 100 mixed-sex stable flies each were placed in screened cages. The cages were placed in such a way that the stable flies had access to five warmed, blood-filled membrane walls. The membranes were treated with methyl dihydrojasmonate, gamma-dodecalactone, methyl apritone, or DEET® all at 7% and at 15% in isopropyl alcohol, or isopropyl alcohol as a control. There were five replicates tested with a positional rotation of the repellent at each replicate. Fresh batches of stable flies were used for each replicate. Thus each test sample was tested on each of the five wells, which allowed any positional bias to be eliminated. The number of stable flies probing each well was recorded at two minute intervals for twenty minutes. The total number of probes on each well were tallied at the end of the twenty minute observation period and the average percentage repellency was calculated for each compound. An analysis of variance was conducted to compare the average number of probes on each treatment membrane. The number of probes for the control was taken as the 100% baseline and the percentage for the test compounds is the percent for the number of probes for the test compound compared to the number of control probes.

[3] = tested on: Brown Dog Ticks, Rhipicephalus sanguineus; assay: Brown Dog tick repellency on vertical filter paper strips; conditions: for ticks repelled: concentration not given
Procedure: Control against Brown Dog ticks was determined in the following protocol. Strips of filter paper, 1″ by 3″, were placed on a sheet of aluminum foil treated with 1 ml each of the test samples and allowed to dry. The end of each treated strip was stapled to an untreated filter paper strip of the same dimensions. The stapled strips were suspended in a vertical position above a tray, with the treated half attached to a horizontal glass rod by a metal clip. The untreated half was lowered when the strip is vertically positioned. Brown Dog Ticks, Rhipicephalus sanguineus, mixed sexes, were purchased from a supplier. Five replicates of five ticks for each treatment regimen plus five additional replicates for the control were employed. Ticks shipped to the test site were given at least one day to acclimate to “shipping stress” before they are used for testing. Those tick specimens which appeared sluggish or moribund were not used. Suitable ticks were removed from their containers and allowed to quest on the free end of the test strip. Once present on the strip they were watched as they crawled up the strip until they contacted the treated paper. If the tick, once in contact with the treated zone, either turned around, stopped without proceeding further, or dropped off, the tick is classified as repelled. If it continued to crawl onto the treated strip, even after it stopped briefly, that tick was classified as not repelled. A maximum observation time of 1 minute per replicate was allowed for ticks to respond after reaching the treated area, but during the test, if more time was needed, the maximum observation time may have been adjusted at the discretion of the study coordinator. At the end of the observation time, the number of ticks repelled was recorded. Tick behavior was recorded when applicable, such as whether increased number of affected or repelled ticks occurred in successive replicates over time. After the completion of each treatment parameter, the testing chamber was ventilated for five minutes by turning on the exhaust fan and opening the door leading into the chamber. Ticks were used only once. Average number of ticks displaying each behavior category were calculated and compared to the control replicates.

[4] = tested on: German cockroaches; assay: German cockroach repellency, choice of food stations in arena; conditions: 50% in acetone; at 4 hours
Procedure: The efficacy of compounds of this invention to control or repel German cockroaches was illustrated using the following protocol. One food pellet each was placed on a paper square (station) treated with one of the repellent materials. Materials were diluted to 50% in acetone and a straight acetone station was also used. Both stations were placed on the same side of the arena. Cockroaches were starved for 2 days and then released into the arena. They were given a choice to feed on either food pellet. A control arena with an acetone treated station and an untreated station was also used. The distribution of cockroaches within the arena was recorded at 30 minute intervals over 4 hours. Repellency at 4 hours was calculated by the number of cockroaches on the untreated station vs. the total number of cockroaches on the stations.

[5] = tested on: brown marmorated stink bugs (BMSB); assay: Brown marmorated stink bug repellency, treated vs. untreated filter paper arena
Procedure: The two semi-circle filter papers were aligned together to completely cover the bottom of the test arena. Control arenas were also set up in a similar fashion except both were treated with acetone. Five replicates of 5 BMSB were then introduced into both the treated and control arenas. By releasing them in the center of the arena, the BMSB were presented with a choice of treated vs. untreated substrate (or untreated vs. untreated in the control arenas). The repellency of the BMSB was recorded at 24 hours post-treatment.

[6] = five minute exposure, percent of control biting taken as 100%

SMILES | percent biting, Treatment level 5% [1, 6] | percent biting, Treatment level-10% ([1]; 10% compound in isopropyl alcohol on human skin, five minute exposure, percent of control biting taken as 100%) [%] | sand flies repelled [1] [%] | Probes at 7% test compound [2] [%] | Probes at 15% test compound [2] [%] | repellency compared with DEET [2] | Mean % repelled ([3]; 7.5% in isopropyl alcohol) [%] | Mean % repelled ([3]; Neat) [%] | ticks repelled [3] [%] | % Repellency 4 hr [4] [%] | % Repellency at 24 hours ([5]; 2.5% in isopropyl alcohol) [%] | % Repellency at 24 hours ([5]; 5% in isopropyl alcohol) [%]
CCC(C)=CCCC(C)=CCC1CCCC1=O (centres unmarked) [Methyl apritone, methyl apritone] | 9.9%^ | 0 | 90.1 | 28.8 | 7.4 | repelled better than DEET® | 100 | 100 | 100 | 100 |  | 
CCCCCC1C(=O)CCC1CC(=O)OC (centres unmarked) [Methyl dihydrojasmonate, methyl dihydrojasmonate] | 0% |  | 100 | 4.5 | 3.2 | repelled better than DEET® |  | 100 | 100 | 72.2 | 74 | 100
